From patent US7786054B2, “Biocide for well stimulation and treatment fluids” (Kemira Chemicals, Inc., priority 2006, dated 2010)
Entries after “also recorded” stand apart in the source; their conditions may differ.

Columns and labels:
[1] = system: acid producing bacteria (AB); experiment: Biocidal effectiveness on acid producing bacteria in spiked frac pond water, serial dilution counts over 180 days with challenges; assay type: cell-based
Method: (§1) In this example, the biocidal effectiveness on sulfate reducing bacteria (SRB) and acid producing bacteria (AB) for biocide formulations containing CB Thione and WB Thione to Glut and THPS was examined.
(§2) A one gallon sample was separated from a five gallon sample of frac pond water for these studies. The frac pond water sample included SRB and AB. Ten mL of a 10^9 cfu/mL inoculum of SRB grown in anaerobic API broth containing an O2 scavenger and 10 mL of a 10^9 cfu/mL inoculum of AB grown in anaerobic phenol red (anPR) broth containing an O2 scavenger were added to the one gallon frac pond water sample, mixed well and allowed to incubate for a period of time sufficient to achieve a desired number of SRB and AB. All broth media for inoculum and serial dilution counts in this study was made at 4% salinity to match the salinity of the original frac pond water measured by total dissolved solids testing. To increase nutrient value and to emulate on-site friction reducing additives, a 30 weight % acrylic acid, 70% acrylamide copolymer was added to the inoculated gallon of frac pond water sample at 300 ppm and then referred to as the spiked frac pond water sample. The spiked sample was then divided into 99.0 g aliquots for testing the effect of various biocides at various concentrations on the SRB and AB over a 180 day contact time. One spiked aliquot would serve as the control sample to which no biocide would be added. Challenges were made to all aliquots using 0.5 mL of 10^8 SRB and 0.5 mL, of 10^8 AB at 14, 28, and 129 days contact time.
(§3) The biocides included a 20% water based Thione (WB Thione), a 24% caustic based Thione (CB Thione), a 25% Glut, and a 35% THPS. Stock biocide solutions of various concentrations were made from these biocides as described below.
(§4) The WB Thione stock solutions were prepared by adding 3.0 g of the biocide to 17.0 g of sterile distilled water to form an intermediate solution, followed by combining each intermediate solution with water in the accounts shown in Table 1 below to make the descending concentrations as shown in Table 1.
as §4, with “The CB” for “The WB”, “the amounts” for “the accounts”, “Table 2” for “Table 1”, “Table 2.” for “Table 1.”
(§5) The Glut stock solutions were prepared by adding 1.0 g biocide to 19.0 g of sterile distilled water to form an intermediate solution, followed by combining each intermediate solution with water in the amounts shown in Table 3 below to make the descending concentrations as shown in Table 3.
(§6) The THPS stock solutions were prepared by adding 1.0 g of the biocide to 19.0 g of sterile distilled water to form an intermediate solution, followed by combining each intermediate solution with water in the amounts shown in Table 4 below to make the descending concentrations as shown in Table 4.
(§7) Next, 1 g of each biocide stock solution was added to the appropriately labeled 99.0 g aliquot. Also, 1.0 g of sterile water was added to the control aliquot. The concentrations of the biocides present in each aliquot are provided below in Table 5.
(§8) The aliquots were then incubated at room temperature in the dark for the entire study, i.e., 6 months. […] Using sterile syringes, this testing was performed by serial diluting the aliquots into sealed 9.0 mL anaerobic API broth and anaerobic PR broth bottles, both media containing an O2 scavenger, in the appropriate labeled set of SRB bottles (6 for each aliquot) mid AB bottles (6 for each aliquot) until a color change occurred, indicating the log quantity of organisms present in each aliquot.

[2] = Effect of biocide on the oxygen scavenger (oxygen reduction potential); assay type: physicochemical; settings: 500 ppm biocide; 120 ppm SMBS; pH 6.4; FIG. 5
Method: In the following examples, an in-house constructed Inversion Loop was modified with a Grace M3500 viscometer for periodically measuring fluid viscosity as a function of time. The ORP apparatus included a HACH sensION pH meter with a combination ORP electrode. In Example 7, a friction loop apparatus was employed
To a beaker containing 500 milliliters of deionized water, a 120 ppm dose of sodium metabisulfite (SMBS) was added and the pH and oxygen reduction potential (ORP) were recorded. Once stabilized, phosphate buffer was added to increase the pH to 6.4 and the ORP recorded. Finally, the particular biocide tested was added at a concentration of 500 ppm. The ORP was recorded initially and after a period of 10 minutes.

[3] = system: sulfate reducing bacteria (SRB); experiment: Biocidal effectiveness on sulfate reducing bacteria in spiked frac pond water, serial dilution counts over 180 days with challenges; assay type: cell-based
Method: as §1, §2, §3, §4
as §4, with “The CB” for “The WB”, “the amounts” for “the accounts”, “Table 2” for “Table 1”, “Table 2.” for “Table 1.”
as §5, §6, §7, §8

[4] = 500 ppm as is (Glut, THPS), 7 Days
[5] = 500 ppm as is (Glut, THPS), 14 Days
[6] = 500 ppm as is (Glut, THPS), 21 Days
[7] = 500 ppm as is (Glut, THPS), 28 Days
[8] = 500 ppm as is (Glut, THPS), 35 Days
[9] = 500 ppm as is (Glut, THPS), 42 Days
[10] = 500 ppm as is (Glut, THPS), 58 Days
[11] = 500 ppm as is (Glut, THPS), 90 Days
[12] = up to 180 days contact time, challenges at 14, 28 and 129 days

Structure (SMILES): O=CCCCC=O [Glut, glutaraldehyde]
- Log 10 Anaerobic Acid Producing Bacteria/mL ([1]; 50 ppm as is, 7 Days): 0 Log 10 Bacteria/mL
- Log 10 Anaerobic Acid Producing Bacteria/mL ([1]; 50 ppm as is, 14 Days): 0 Log 10 Bacteria/mL
- Log 10 Anaerobic Acid Producing Bacteria/mL ([1]; 50 ppm as is, 21 Days): 1 Log 10 Bacteria/mL
- Log 10 Anaerobic Acid Producing Bacteria/mL ([1]; 50 ppm as is, 28 Days): 0 Log 10 Bacteria/mL
- Log 10 Anaerobic Acid Producing Bacteria/mL ([1]; 50 ppm as is, 35 Days): ≧3 Log 10 Bacteria/mL
- Log 10 Anaerobic Acid Producing Bacteria/mL ([1]; 50 ppm as is, 42 Days): ≧6 Log 10 Bacteria/mL
- Log 10 Anaerobic Acid Producing Bacteria/mL ([1]; 50 ppm as is, 58 Days): ≧6 Log 10 Bacteria/mL
- Log 10 Anaerobic Acid Producing Bacteria/mL ([1]; 50 ppm as is, 90 Days): ≧5 Log 10 Bacteria/mL
- Log 10 Anaerobic Acid Producing Bacteria/mL ([1]; 100 ppm as is, 7 Days): 0 Log 10 Bacteria/mL
- Log 10 Anaerobic Acid Producing Bacteria/mL ([1]; 100 ppm as is, 14 Days): 0 Log 10 Bacteria/mL
- Log 10 Anaerobic Acid Producing Bacteria/mL ([1]; 100 ppm as is, 21 Days): 0 Log 10 Bacteria/mL
- Log 10 Anaerobic Acid Producing Bacteria/mL ([1]; 100 ppm as is, 28 Days): 0 Log 10 Bacteria/mL
- Log 10 Anaerobic Acid Producing Bacteria/mL ([1]; 100 ppm as is, 35 Days): ≧3 Log 10 Bacteria/mL
- Log 10 Anaerobic Acid Producing Bacteria/mL ([1]; 100 ppm as is, 42 Days): ≧6 Log 10 Bacteria/mL
- Log 10 Anaerobic Acid Producing Bacteria/mL ([1]; 100 ppm as is, 58 Days): ≧6 Log 10 Bacteria/mL
- Log 10 Anaerobic Acid Producing Bacteria/mL ([1]; 100 ppm as is, 90 Days): ≧6 Log 10 Bacteria/mL
- Log 10 Anaerobic Acid Producing Bacteria/mL ([1]; 200 ppm as is, 7 Days): 0 Log 10 Bacteria/mL
- Log 10 Anaerobic Acid Producing Bacteria/mL ([1]; 200 ppm as is, 14 Days): 1 Log 10 Bacteria/mL
- Log 10 Anaerobic Acid Producing Bacteria/mL ([1]; 200 ppm as is, 21 Days): 0 Log 10 Bacteria/mL
- Log 10 Anaerobic Acid Producing Bacteria/mL ([1]; 200 ppm as is, 28 Days): 0 Log 10 Bacteria/mL
- Log 10 Anaerobic Acid Producing Bacteria/mL ([1]; 200 ppm as is, 35 Days): ≧3 Log 10 Bacteria/mL
- Log 10 Anaerobic Acid Producing Bacteria/mL ([1]; 200 ppm as is, 42 Days): ≧5 Log 10 Bacteria/mL
- Log 10 Anaerobic Acid Producing Bacteria/mL ([1]; 200 ppm as is, 58 Days): ≧6 Log 10 Bacteria/mL
- Log 10 Anaerobic Acid Producing Bacteria/mL ([1]; 200 ppm as is, 90 Days): ≧6 Log 10 Bacteria/mL
- Log 10 Anaerobic Acid Producing Bacteria/mL [1, 4]: 0 Log 10 Bacteria/mL
- Log 10 Anaerobic Acid Producing Bacteria/mL [1, 5]: 0 Log 10 Bacteria/mL
- Log 10 Anaerobic Acid Producing Bacteria/mL [1, 6]: 0 Log 10 Bacteria/mL
- Log 10 Anaerobic Acid Producing Bacteria/mL [1, 7]: 0 Log 10 Bacteria/mL
- Log 10 Anaerobic Acid Producing Bacteria/mL [1, 8]: ≧3 Log 10 Bacteria/mL
- Log 10 Anaerobic Acid Producing Bacteria/mL [1, 9]: 4 Log 10 Bacteria/mL
- Log 10 Anaerobic Acid Producing Bacteria/mL [1, 10]: ≧6 Log 10 Bacteria/mL
- Log 10 Anaerobic Acid Producing Bacteria/mL [1, 11]: ≧6 Log 10 Bacteria/mL
- control of AB in frac pond water (summary in words) [1, 12]: lost all control of SRB and AB after the 2nd challenge on day 28
- ORP after 10 minutes of residence time [2]: increases nearly to the level of the DI H2O alone
- ORP response upon initial addition of biocide [2]: does not significantly impact ORP
- Log 10 Anaerobic Sulfate Reducing Bacteria/mL ([3]; 50 ppm as is, 7 Days): 0 Log 10 Bacteria/mL
- Log 10 Anaerobic Sulfate Reducing Bacteria/mL ([3]; 50 ppm as is, 14 Days): 0 Log 10 Bacteria/mL
- Log 10 Anaerobic Sulfate Reducing Bacteria/mL ([3]; 50 ppm as is, 21 Days): 0 Log 10 Bacteria/mL
- Log 10 Anaerobic Sulfate Reducing Bacteria/mL ([3]; 50 ppm as is, 28 Days): 0 Log 10 Bacteria/mL
- Log 10 Anaerobic Sulfate Reducing Bacteria/mL ([3]; 50 ppm as is, 35 Days): ≧3 Log 10 Bacteria/mL
- Log 10 Anaerobic Sulfate Reducing Bacteria/mL ([3]; 50 ppm as is, 42 Days): ≧6 Log 10 Bacteria/mL
- Log 10 Anaerobic Sulfate Reducing Bacteria/mL ([3]; 50 ppm as is, 58 Days): ≧6 Log 10 Bacteria/mL
- Log 10 Anaerobic Sulfate Reducing Bacteria/mL ([3]; 50 ppm as is, 90 Days): ≧5 Log 10 Bacteria/mL
- Log 10 Anaerobic Sulfate Reducing Bacteria/mL ([3]; 100 ppm as is, 7 Days): 0 Log 10 Bacteria/mL
- Log 10 Anaerobic Sulfate Reducing Bacteria/mL ([3]; 100 ppm as is, 14 Days): 0 Log 10 Bacteria/mL
- Log 10 Anaerobic Sulfate Reducing Bacteria/mL ([3]; 100 ppm as is, 21 Days): 0 Log 10 Bacteria/mL
- Log 10 Anaerobic Sulfate Reducing Bacteria/mL ([3]; 100 ppm as is, 28 Days): 0 Log 10 Bacteria/mL
- Log 10 Anaerobic Sulfate Reducing Bacteria/mL ([3]; 100 ppm as is, 35 Days): ≧3 Log 10 Bacteria/mL
- Log 10 Anaerobic Sulfate Reducing Bacteria/mL ([3]; 100 ppm as is, 42 Days): ≧6 Log 10 Bacteria/mL
- Log 10 Anaerobic Sulfate Reducing Bacteria/mL ([3]; 100 ppm as is, 58 Days): ≧5 Log 10 Bacteria/mL
- Log 10 Anaerobic Sulfate Reducing Bacteria/mL ([3]; 100 ppm as is, 90 Days): ≧5 Log 10 Bacteria/mL
- Log 10 Anaerobic Sulfate Reducing Bacteria/mL ([3]; 200 ppm as is, 7 Days): 0 Log 10 Bacteria/mL
- Log 10 Anaerobic Sulfate Reducing Bacteria/mL ([3]; 200 ppm as is, 14 Days): 0 Log 10 Bacteria/mL
- Log 10 Anaerobic Sulfate Reducing Bacteria/mL ([3]; 200 ppm as is, 21 Days): 0 Log 10 Bacteria/mL
- Log 10 Anaerobic Sulfate Reducing Bacteria/mL ([3]; 200 ppm as is, 28 Days): 0 Log 10 Bacteria/mL
- Log 10 Anaerobic Sulfate Reducing Bacteria/mL ([3]; 200 ppm as is, 35 Days): ≧3 Log 10 Bacteria/mL
- Log 10 Anaerobic Sulfate Reducing Bacteria/mL ([3]; 200 ppm as is, 42 Days): ≧6 Log 10 Bacteria/mL
- Log 10 Anaerobic Sulfate Reducing Bacteria/mL ([3]; 200 ppm as is, 58 Days): ≧6 Log 10 Bacteria/mL
- Log 10 Anaerobic Sulfate Reducing Bacteria/mL ([3]; 200 ppm as is, 90 Days): ≧6 Log 10 Bacteria/mL
- Log 10 Anaerobic Sulfate Reducing Bacteria/mL [3, 4]: 0 Log 10 Bacteria/mL
- Log 10 Anaerobic Sulfate Reducing Bacteria/mL [3, 5]: 0 Log 10 Bacteria/mL
- Log 10 Anaerobic Sulfate Reducing Bacteria/mL [3, 6]: 0 Log 10 Bacteria/mL
- Log 10 Anaerobic Sulfate Reducing Bacteria/mL [3, 7]: 0 Log 10 Bacteria/mL
- Log 10 Anaerobic Sulfate Reducing Bacteria/mL [3, 8]: ≧3 Log 10 Bacteria/mL
- Log 10 Anaerobic Sulfate Reducing Bacteria/mL [3, 9]: 5 Log 10 Bacteria/mL
- Log 10 Anaerobic Sulfate Reducing Bacteria/mL [3, 10]: ≧6 Log 10 Bacteria/mL
- Log 10 Anaerobic Sulfate Reducing Bacteria/mL [3, 11]: ≧6 Log 10 Bacteria/mL
- control of SRB in frac pond water (summary in words) [3, 12]: lost all control of SRB and AB after the 2nd challenge on day 28; also recorded: failed completely at all concentrations after challenging twice at 14 and 28 days contact time
